From publication PMC11274883, “Anticancer Effect of Pt^[sequence], Pt^II5MESS, Pt^II56MESS and Their Platinum(IV)-Dihydroxy Derivatives against Triple-Negative Breast Cancer and Cisplatin-Resistant Colorectal Cancer” (Cancers, 2024)

Columns and labels:
Format in all cases: cell-based
HT29 cells [1] = test: TMRE mitochondrial membrane potential assay; settings: complexes at IC50, FCCP 20 µM
Protocol: (§1) Cells were then treated with an IC50 drug concentration for each complex. At 24, 48 or 72 h, DMEM was removed, and cells were washed with PBS. Then, cells were incubated with 1 µM tetramethylrhodamine, ethyl ester (TMRE) stain for 30 min. TMRE was then removed, and cells were washed twice with PBS (0.2% BSA), after which phenol red-free media was added. […] The cells were then stained with TMRE, as described above, and the resulting solution was scanned for fluorescence. Three independent experiments in triplicates were implemented.

MDA−MB−231 cells [2] = test: TMRE mitochondrial membrane potential assay; settings: complexes at IC50, FCCP 20 µM
Protocol: as §1

HT29 cells [3] = test: DCFDA cellular ROS detection assay; settings: complexes at IC50, TBHP 20 µM
Protocol: (§2) DCFDA/H2DCFDA-cellular ROS Assay Kit (Abcam, Cambridge, MA, USA) was used to investigate the production of ROS in treated cells, as previously described. MDA−MB−231 or HT29 cells were seeded at a total concentration of 2500 cells/well in 96-well plates and incubated overnight. DMEM was then removed, and cells washed with 1× kit buffer, and stained with 25 µM 2′,7′-dichlorofluorescein diacetate (DCFH-DA) for 45 min. […] After that, the plates were scanned using the Glo-Max®-Multimode microplate reader (Promega Corporation, Alexandra, VIC, Australia) at an excitation/emission of 485/535 nm to detect fluorescence (relative fluorescence units, or RFU) at various time points. A positive control was generated using 20 µM tert-butyl hydroperoxide (TBHP), and the same procedure was applied with DCFDA. Three independent experiments in triplicates were implemented.

MDA−MB−231 cells [4] = test: DCFDA cellular ROS detection assay; settings: complexes at IC50, TBHP 20 µM
Protocol: as §2

## N#CC(C#N)=NNc1ccc(OC(F)(F)F)cc1 [FCCP, carbonyl cyanide 4-(trifluoromethoxy) phenylhydrazone, reference compound]
HT29 cells [1]; HT29, 24 h
  MtMp (mitochondrial membrane potential): 184.32 RFU
HT29 cells [1]; HT29, 48 h
  MtMp (mitochondrial membrane potential): 143.31 RFU
HT29 cells [1]; HT29, 72 h
  MtMp (mitochondrial membrane potential): 83.58 RFU
MDA−MB−231 cells [2]; MDA−MB−231, 24 h
  MtMp (mitochondrial membrane potential): 215.89 RFU
MDA−MB−231 cells [2]; MDA−MB−231, 48 h
  MtMp (mitochondrial membrane potential): 123.38 RFU
MDA−MB−231 cells [2]; MDA−MB−231, 72 h
  MtMp (mitochondrial membrane potential): 99.10 RFU

## CC(C)(C)OO [TBHP, tert-butyl hydroperoxide, reference compound]
HT29 cells [3]; HT29, 24 h
  ROS production: 544.67 RFU
HT29 cells [3]; HT29, 48 h
  ROS production: 362.55 RFU
HT29 cells [3]; HT29, 72 h
  ROS production: 371.44 RFU
MDA−MB−231 cells [4]; MDA−MB−231, 24 h
  ROS production: 509.88 RFU
MDA−MB−231 cells [4]; MDA−MB−231, 48 h
  ROS production: 400.11 RFU
MDA−MB−231 cells [4]; MDA−MB−231, 72 h
  ROS production: 388.41 RFU
